The values that follow come from US20260193264A1, “BENZOYPARAZINE PYRAZINES AND THEIR USES” (FOGHORN THERAPEUTICS INC., priority 2022, published 2026).

Assay [1] has as its target T1, HiBit-BRG1 fusion protein in stable HeLa cell line expressing HiBit-BRG1 and LgBit (Homo sapiens, UniProt P51532).
T1 construct: expressed in transfected cells
As to the kind of experiment: HiBiT-BRG1 cell-based degradation assay (Nano-Glo HiBiT, 24 h). The conditions noted are these: HeLa HiBit-BRG1/LgBit cells; for Dmax: top dose 30 μM, read-out: BRG1 HiBit Degradation Maximum (%); for DC50: read-out: BRMG1 HiBit Degradation IC50. Put shortly: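 Degradation calculated from NanoBiT luminescence relative to DMSO-treated cells (high) and cells given 2 μM known BRM/BRG1 degrader (low). HeLa cells stably expressing HiBiT-BRG1 plus LgBiT were exposed to compound for 24 h before lytic HiBiT detection.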

The target in assay [2] is T2, HiBiT-BRM fusion protein in stable HeLa cell line (Homo sapiens, UniProt P51531).
T2 construct: expressed in transfected cells
The assay is described as follows: HiBiT-BRM cell-based degradation assay (Nano-Glo HiBiT Lytic Detection, 24 h). Particulars: HeLa HiBiT-BRM cells; for DC50: read-out: BRM HiBit Degradation IC50; for BRM HiBit Degradation Maximum (%): top dose 30 μM. Set-up: DC50: scale not given here. Put shortly:
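HiBiT-tagged BRM levels in a stable HeLa line are measured after one day of compound treatment (up to 30 μM final, duplicate 10-point curves) by adding LgBiT lytic reagent and reading bioluminescence; values are expressed relative to vehicle and a 2 μM degrader control.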

Some results are limits rather than exact numbers.

T1 sequence (P51532 whole entry, the tested form may be a part): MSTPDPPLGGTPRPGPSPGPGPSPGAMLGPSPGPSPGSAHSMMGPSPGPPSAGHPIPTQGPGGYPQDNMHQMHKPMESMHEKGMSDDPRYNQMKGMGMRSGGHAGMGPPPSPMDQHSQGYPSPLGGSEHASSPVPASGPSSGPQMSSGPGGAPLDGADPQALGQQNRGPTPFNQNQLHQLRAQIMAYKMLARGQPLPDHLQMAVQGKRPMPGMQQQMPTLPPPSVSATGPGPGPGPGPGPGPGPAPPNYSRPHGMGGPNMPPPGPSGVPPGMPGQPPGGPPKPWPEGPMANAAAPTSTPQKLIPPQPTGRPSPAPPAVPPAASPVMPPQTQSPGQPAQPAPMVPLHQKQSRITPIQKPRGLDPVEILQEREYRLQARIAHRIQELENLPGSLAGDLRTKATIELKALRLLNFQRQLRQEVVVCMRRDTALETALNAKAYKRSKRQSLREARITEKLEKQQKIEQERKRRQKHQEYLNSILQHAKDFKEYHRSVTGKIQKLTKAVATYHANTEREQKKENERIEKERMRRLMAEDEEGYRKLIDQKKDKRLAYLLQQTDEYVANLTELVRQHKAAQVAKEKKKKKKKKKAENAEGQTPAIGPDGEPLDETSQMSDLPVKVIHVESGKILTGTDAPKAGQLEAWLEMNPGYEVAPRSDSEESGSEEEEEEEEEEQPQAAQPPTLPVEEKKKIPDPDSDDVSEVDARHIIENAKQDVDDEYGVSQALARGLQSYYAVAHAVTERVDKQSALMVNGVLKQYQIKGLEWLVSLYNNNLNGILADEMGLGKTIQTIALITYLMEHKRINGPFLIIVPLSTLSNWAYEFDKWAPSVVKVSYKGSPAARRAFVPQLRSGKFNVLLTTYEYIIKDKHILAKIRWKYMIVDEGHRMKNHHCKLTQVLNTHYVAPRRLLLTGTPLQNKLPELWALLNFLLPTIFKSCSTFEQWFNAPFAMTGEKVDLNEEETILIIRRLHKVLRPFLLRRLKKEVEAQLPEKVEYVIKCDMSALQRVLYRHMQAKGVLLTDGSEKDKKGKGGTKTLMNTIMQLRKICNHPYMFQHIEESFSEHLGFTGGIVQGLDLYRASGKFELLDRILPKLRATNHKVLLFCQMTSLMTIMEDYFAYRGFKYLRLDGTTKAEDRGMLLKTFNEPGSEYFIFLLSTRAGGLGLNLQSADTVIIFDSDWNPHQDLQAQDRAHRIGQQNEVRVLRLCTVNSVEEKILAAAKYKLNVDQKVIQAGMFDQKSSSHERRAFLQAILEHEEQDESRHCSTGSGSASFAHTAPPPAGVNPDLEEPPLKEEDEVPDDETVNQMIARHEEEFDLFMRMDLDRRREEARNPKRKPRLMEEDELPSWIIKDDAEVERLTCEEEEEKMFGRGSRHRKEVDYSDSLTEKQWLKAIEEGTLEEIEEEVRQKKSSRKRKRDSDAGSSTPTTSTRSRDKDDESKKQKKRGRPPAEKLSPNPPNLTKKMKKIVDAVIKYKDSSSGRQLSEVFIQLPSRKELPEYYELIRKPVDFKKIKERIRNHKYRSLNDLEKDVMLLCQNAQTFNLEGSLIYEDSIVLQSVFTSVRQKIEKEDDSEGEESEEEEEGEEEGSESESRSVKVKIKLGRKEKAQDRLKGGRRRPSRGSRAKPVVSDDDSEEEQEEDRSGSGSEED
T2 sequence (P51531 whole entry, the tested form may be a part): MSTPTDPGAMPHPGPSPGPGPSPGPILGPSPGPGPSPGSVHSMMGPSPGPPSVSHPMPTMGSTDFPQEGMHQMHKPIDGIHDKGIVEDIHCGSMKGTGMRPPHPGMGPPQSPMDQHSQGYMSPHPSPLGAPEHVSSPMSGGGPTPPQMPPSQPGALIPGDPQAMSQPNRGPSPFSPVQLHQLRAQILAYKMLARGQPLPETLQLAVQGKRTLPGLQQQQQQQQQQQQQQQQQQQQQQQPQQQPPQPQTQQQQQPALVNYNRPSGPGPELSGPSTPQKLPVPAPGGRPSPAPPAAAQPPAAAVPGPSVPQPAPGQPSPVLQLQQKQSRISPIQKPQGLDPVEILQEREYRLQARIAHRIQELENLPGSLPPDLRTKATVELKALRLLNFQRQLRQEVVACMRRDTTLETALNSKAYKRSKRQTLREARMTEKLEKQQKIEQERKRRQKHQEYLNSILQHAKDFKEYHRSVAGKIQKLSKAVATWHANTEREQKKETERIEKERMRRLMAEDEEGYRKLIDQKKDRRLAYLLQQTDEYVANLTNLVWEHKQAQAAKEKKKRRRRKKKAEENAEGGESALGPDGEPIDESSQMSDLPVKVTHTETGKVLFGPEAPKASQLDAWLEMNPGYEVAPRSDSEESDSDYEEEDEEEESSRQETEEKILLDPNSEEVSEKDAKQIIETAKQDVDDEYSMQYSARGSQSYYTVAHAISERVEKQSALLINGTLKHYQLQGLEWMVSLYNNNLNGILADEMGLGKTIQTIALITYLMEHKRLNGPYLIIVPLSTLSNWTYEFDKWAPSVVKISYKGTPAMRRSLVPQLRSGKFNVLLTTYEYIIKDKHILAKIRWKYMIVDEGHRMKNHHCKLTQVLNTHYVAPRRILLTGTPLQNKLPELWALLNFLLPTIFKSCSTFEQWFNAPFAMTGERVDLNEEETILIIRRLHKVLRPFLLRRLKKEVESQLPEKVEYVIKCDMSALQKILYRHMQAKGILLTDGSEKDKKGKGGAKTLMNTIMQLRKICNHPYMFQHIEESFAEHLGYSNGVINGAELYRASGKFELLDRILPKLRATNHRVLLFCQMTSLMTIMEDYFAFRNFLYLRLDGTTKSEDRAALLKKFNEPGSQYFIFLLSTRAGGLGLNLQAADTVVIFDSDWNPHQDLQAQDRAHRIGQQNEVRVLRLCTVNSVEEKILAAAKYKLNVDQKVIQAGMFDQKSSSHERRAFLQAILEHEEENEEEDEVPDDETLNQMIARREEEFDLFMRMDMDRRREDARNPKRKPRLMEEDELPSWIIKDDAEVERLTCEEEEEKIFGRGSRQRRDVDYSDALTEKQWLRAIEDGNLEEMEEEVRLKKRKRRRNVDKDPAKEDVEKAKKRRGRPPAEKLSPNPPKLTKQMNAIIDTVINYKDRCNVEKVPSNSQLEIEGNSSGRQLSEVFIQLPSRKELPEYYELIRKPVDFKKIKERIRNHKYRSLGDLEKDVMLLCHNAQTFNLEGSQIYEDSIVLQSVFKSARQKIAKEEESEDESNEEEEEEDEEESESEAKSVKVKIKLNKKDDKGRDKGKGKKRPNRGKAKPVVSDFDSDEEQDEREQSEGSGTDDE

With `Cc1ncsc1-c1ccc([C@H](C)NC(=O)[C@@H]2C[C@@H](O)CN2C(=O)[C@@H](c2cc(N3CCC4(CC[C@@H](c5ccc6cc(-c7ccccc7O)nnc6c5)C4)CC3)no2)C(C)C)cc1` [Compound 93, (2S,4R)-4-hydroxy-1-((R)-2-(3-((R)-2-(3-(2-hydroxyphenyl)cinnolin-7-yl)-8-azaspiro[4.5]decan-8-yl)isoxazol-5-yl)-3-methylbutanoyl)-N-((S)-1-(4-(4-methylthiazol-5-yl)phenyl)ethyl)pyrrolidine-2-carboxamide], the Dmax in assay [1] is < 50%. Moreover, in assay [2], the DC50 is < 10 nM and the “BRM HiBit Degradation Maximum (%)” value was “A (“A” indicates maximum degradation ≥75%)”.

For `Cc1ncsc1-c1ccc([C@H](C)NC(=O)[C@@H]2C[C@@H](O)CN2C(=O)[C@@H](c2cc(N3CCC4(CC3)CC(c3ccc5cc(-c6cccc(F)c6O)nnc5c3)C4)no2)C(C)C)cc1` [Compound 94, (2S,4R)-1-((R)-2-(3-(2-(3-(3-fluoro-2-hydroxyphenyl)cinnolin-7-yl)-7-azaspiro[3.5]nonan-7-yl)isoxazol-5-yl)-3-methylbutanoyl)-4-hydroxy-N-((S)-1-(4-(4-methylthiazol-5-yl)phenyl)ethyl)pyrrolidine-2-carboxamide], the Dmax in assay [1] was < 50%. In addition, in assay [2], the DC50 was < 10 nM and the “BRM HiBit Degradation Maximum (%)” value is “A (“A” indicates maximum degradation ≥75%)”.

As for `Cc1ncsc1-c1ccc([C@H](C)NC(=O)[C@@H]2C[C@@H](O)CN2C(=O)[C@@H](c2cc(N3CC4(CCN(c5ccc6cc(-c7ccccc7O)nnc6c5)CC4)C3)no2)C(C)C)cc1` [Compound 95, (2S,4R)-4-hydroxy-1-((R)-2-(3-(7-(3-(2-hydroxyphenyl)cinnolin-7-yl)-2,7-diazaspiro[3.5]nonan-2-yl)isoxazol-5-yl)-3-methylbutanoyl)-N-((S)-1-(4-(4-methylthiazol-5-yl)phenyl)ethyl)pyrrolidine-2-carboxamide], in assay [1], the DC50 was < 10 nM and the Dmax was > 75%. For the same compound, in assay [2], the DC50 is < 10 nM and the “BRM HiBit Degradation Maximum (%)” value was “A (“A” indicates maximum degradation ≥75%)”.

With `Cc1ncsc1-c1ccc([C@H](C)NC(=O)[C@@H]2C[C@@H](O)CN2C(=O)[C@@H](c2cc(N3CCC4(CCC(c5ccc6cc(-c7ccccc7O)nnc6c5)CC4)CC3)no2)C(C)C)cc1` [Compound 96, (2S,4R)-4-hydroxy-1-((R)-2-(3-(9-(3-(2-hydroxyphenyl)cinnolin-7-yl)-3-azaspiro[5.5]undecan-3-yl)isoxazol-5-yl)-3-methylbutanoyl)-N-((S)-1-(4-(4-methylthiazol-5-yl)phenyl)ethyl)pyrrolidine-2-carboxamide], in assay [1], the DC50 was > 10 nM and the Dmax is > 75%. Also, in assay [2], the DC50 is < 10 nM and the “BRM HiBit Degradation Maximum (%)” value was “A (“A” indicates maximum degradation ≥75%)”.

Regarding `Cc1ncsc1-c1ccc([C@H](C)NC(=O)[C@@H]2C[C@@H](O)CN2C(=O)[C@@H](c2cc(-c3ccc4nnc(-c5ccccc5O)cc4c3)no2)C(C)C)cc1` [Compound 97, (2S,4R)-4-hydroxy-1-[(2R)-2-{3-[3-(2-hydroxyphenyl)cinnolin-6-yl]-1,2-oxazol-5-yl}-3-methylbutanoyl]-N-[(1S)-1-[4-(4-methyl-1,3-thiazol-5-yl)phenyl]ethyl]pyrrolidine-2-carboxamide], in assay [1], the DC50 was < 10 nM and the Dmax was > 75%. In assay [2], the DC50 is < 10 nM and the “BRM HiBit Degradation Maximum (%)” value is “A (“A” indicates maximum degradation ≥75%)”.

Turning to `Cc1ncsc1-c1ccc([C@H](C)NC(=O)[C@@H]2C[C@@H](O)CN2C(=O)[C@@H](c2cc(N3CCC4(CCN(c5ccc6nnc(-c7ccccc7O)cc6c5)C4)C3)no2)C(C)C)cc1` (stereo partly drawn) [Compound 98, (2S,4R)-4-hydroxy-1-((2R)-2-(3-(7-(3-(2-hydroxyphenyl)cinnolin-6-yl)-2,7-diazaspiro[4.4]nonan-2-yl)isoxazol-5-yl)-3-methylbutanoyl)-N-((S)-1-(4-(4-methylthiazol-5-yl)phenyl)ethyl)pyrrolidine-2-carboxamide], in assay [1], the DC50 is > 10 nM and the Dmax was > 75%. Moreover, in assay [2], the DC50 is < 10 nM and the “BRM HiBit Degradation Maximum (%)” value is “A (“A” indicates maximum degradation ≥75%)”.

`Cc1ncsc1-c1ccc([C@H](C)NC(=O)[C@@H]2C[C@@H](O)CN2C(=O)[C@@H](c2cc(N3CC[C@@]4(CCN(c5ccc6cc(-c7ccccc7O)nnc6c5)C4)C3)no2)C(C)C)cc1` [Compound 99, (2S,4R)-4-hydroxy-1-((R)-2-(3-((R)-7-(3-(2-hydroxyphenyl)cinnolin-7-yl)-2,7-diazaspiro[4.4]nonan-2-yl)isoxazol-5-yl)-3-methylbutanoyl)-N-((S)-1-(4-(4-methylthiazol-5-yl)phenyl)ethyl)pyrrolidine-2-carboxamide]: in assay [1], the DC50 is < 10 nM and the Dmax was > 75%. In assay [2], the DC50 was < 10 nM and the “BRM HiBit Degradation Maximum (%)” value is given as “A (“A” indicates maximum degradation ≥75%)”.

Regarding `Cc1ncsc1-c1ccc([C@H](C)NC(=O)[C@@H]2C[C@@H](O)CN2C(=O)[C@@H](c2cc(N3CC4(CCN4c4ccc5cc(-c6ccccc6O)nnc5c4)C3)no2)C(C)C)cc1` [Compound 100, (2S,4R)-4-hydroxy-1-((R)-2-(3-(1-(3-(2-hydroxyphenyl)cinnolin-7-yl)-1,6-diazaspiro[3.3]heptan-6-yl)isoxazol-5-yl)-3-methylbutanoyl)-N-((S)-1-(4-(4-methylthiazol-5-yl)phenyl)ethyl)pyrrolidine-2-carboxamide], in assay [1], the Dmax is < 50%. Also, in assay [2], the DC50 is > 10 nM and the “BRM HiBit Degradation Maximum (%)” value was “B (“B” indicates maximum degradation ≥50%)”.

Turning to `Cc1ncsc1-c1ccc([C@H](C)NC(=O)[C@@H]2C[C@@H](O)CN2C(=O)[C@@H](c2cc(N3CCC[C@@H](c4ccc5nnc(-c6ccccc6O)cc5c4)C3)no2)C(C)C)cc1` [Compound 101, (2S,4R)-4-hydroxy-1-((R)-2-(3-((S)-3-(3-(2-hydroxyphenyl)cinnolin-6-yl)piperidin-1-yl)isoxazol-5-yl)-3-methylbutanoyl)-N-((S)-1-(4-(4-methylthiazol-5-yl)phenyl)ethyl)pyrrolidine-2-carboxamide], the Dmax in assay [1] was < 50%. Besides, in assay [2], the DC50 was > 10 nM and the “BRM HiBit Degradation Maximum (%)” value is listed as “A (“A” indicates maximum degradation ≥75%)”.

For `Cc1ncsc1-c1ccc([C@H](C)NC(=O)[C@@H]2C[C@@H](O)CN2C(=O)[C@@H](c2cc(N3CC4(CCN4c4ccc5nnc(-c6ccccc6O)cc5c4)C3)no2)C(C)C)cc1` [Compound 102, (2S,4R)-4-hydroxy-1-((R)-2-(3-(1-(3-(2-hydroxyphenyl)cinnolin-6-yl)-1,6-diazaspiro[3.3]heptan-6-yl)isoxazol-5-yl)-3-methylbutanoyl)-N-((S)-1-(4-(4-methylthiazol-5-yl)phenyl)ethyl)pyrrolidine-2-carboxamide], in assay [1], the Dmax was < 50%. Also, in assay [2], the DC50 is < 10 nM and the “BRM HiBit Degradation Maximum (%)” value is recorded as “A (“A” indicates maximum degradation ≥75%)”.

As for `Cc1ncsc1-c1ccc([C@H](C)NC(=O)[C@@H]2C[C@@H](O)CN2C(=O)[C@@H](c2cc(N3CCC4(CC3)CCN(c3ccc5cc(-c6ccccc6O)nnc5c3)C(=O)C4)no2)C(C)C)cc1` [Compound 103, (2S,4R)-4-hydroxy-1-((R)-2-(3-(9-(3-(2-hydroxyphenyl)cinnolin-7-yl)-8-oxo-3,9-diazaspiro[5.5]undecan-3-yl)isoxazol-5-yl)-3-methylbutanoyl)-N-((S)-1-(4-(4-methylthiazol-5-yl)phenyl)ethyl)pyrrolidine-2-carboxamide], the Dmax in assay [1] was < 50%. Also, in assay [2], the DC50 is < 10 nM and the “BRM HiBit Degradation Maximum (%)” value is listed as “A (“A” indicates maximum degradation ≥75%)”.

For the compound `Cc1ncsc1-c1ccc([C@H](C)NC(=O)[C@@H]2C[C@@H](O)CN2C(=O)[C@@H](c2cc(N3CCC4(CC3)CCN(c3ccc5cc(-c6ccccc6O)nnc5c3)C4=O)no2)C(C)C)cc1` [Compound 104, (2S,4R)-4-hydroxy-1-((R)-2-(3-(2-(3-(2-hydroxyphenyl)cinnolin-7-yl)-1-oxo-2,8-diazaspiro[4.5]decan-8-yl)isoxazol-5-yl)-3-methylbutanoyl)-N-((S)-1-(4-(4-methylthiazol-5-yl)phenyl)ethyl)pyrrolidine-2-carboxamide], the Dmax in assay [1] is < 50%. Besides, in assay [2], the DC50 is < 10 nM and the “BRM HiBit Degradation Maximum (%)” value is listed as “A (“A” indicates maximum degradation ≥75%)”.

`Cc1ncsc1-c1ccc([C@H](C)NC(=O)[C@@H]2C[C@@H](O)CN2C(=O)[C@@H](c2cc(N3CC4(CCN(c5ccc6cc(-c7ccccc7O)nnc6c5)CC4(F)F)C3)no2)C(C)C)cc1` [Compound 105, (2S,4R)-1-((R)-2-(3-(5,5-difluoro-7-(3-(2-hydroxyphenyl)cinnolin-7-yl)-2,7-diazaspiro[3.5]nonan-2-yl)isoxazol-5-yl)-3-methylbutanoyl)-4-hydroxy-N-((S)-1-(4-(4-methylthiazol-5-yl)phenyl)ethyl)pyrrolidine-2-carboxamide]: in assay [1], the DC50 is < 10 nM and the Dmax was > 75%. Besides, in assay [2], the DC50 is < 10 nM and the “BRM HiBit Degradation Maximum (%)” value was “A (“A” indicates maximum degradation ≥75%)”.
